Source: article PMC3191909 (Journal of biomolecular screening, 2009)
Like-named read-outs stand apart in the source and are kept apart here.

Columns and labels:
(UniProt Z9ZW91H0F0) = assay: [3H]epibatidine radioligand competition SPA, Bt AChBP; format: binding, Bolinus truncates
AChBP (Ls) [1] = target: T1, AChBP (Ls) (Lymnaea stagnalis, UniProt P58154); format: binding; settings: read-out: Kd, [3H]Epibatidine
AChBP (Ls) [2] = target: T1, AChBP (Ls); format: binding; settings: read-out: Kd, [125I]α-Bungarotoxin
AChBP (Ac) [3] = target: T2, AChBP (Ac) (Aplysia californica, UniProt Q8WSF8); assay: biochemical; format: binding
AChBP (Ac) [4] = target: T2, AChBP (Ac); assay: [3H]epibatidine radioligand competition SPA, Ac AChBP; format: binding
α-cobratoxin = α-cobratoxin (Naja kaouthia, UniProt P01391); design: species or system mice; settings: mouse, in vivo, iv
Sequence of α-cobratoxin (P01391 whole entry, looked up): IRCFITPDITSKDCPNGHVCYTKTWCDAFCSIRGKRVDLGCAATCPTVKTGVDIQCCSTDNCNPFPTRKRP

T1 sequence (P58154 20-229): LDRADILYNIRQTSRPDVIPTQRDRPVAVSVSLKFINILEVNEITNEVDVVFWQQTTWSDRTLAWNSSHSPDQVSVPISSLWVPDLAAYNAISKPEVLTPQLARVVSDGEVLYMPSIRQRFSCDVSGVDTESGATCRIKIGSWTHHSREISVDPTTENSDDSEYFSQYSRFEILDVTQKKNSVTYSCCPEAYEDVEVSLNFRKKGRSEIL
Sequence of (UniProt Z9ZW91H0F0) (Z9ZW91H0F0 1-203): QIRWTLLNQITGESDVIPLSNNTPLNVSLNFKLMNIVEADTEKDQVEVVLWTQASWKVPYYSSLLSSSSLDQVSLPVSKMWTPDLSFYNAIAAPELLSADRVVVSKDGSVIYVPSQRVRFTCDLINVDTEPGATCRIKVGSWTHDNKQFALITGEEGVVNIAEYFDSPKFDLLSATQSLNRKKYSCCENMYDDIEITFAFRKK

Row | SMILES | Kd (AChBP (Ls) [1]) [nM] | Kd (AChBP (Ls) [2]) [nM] | also measured
1 | COc1cc2c3cc1Oc1cc(ccc1O)C[C@@H]1c4c(cc(OC)c(O)c4Oc4ccc(cc4)C[C@@H]3N(C)CC2)CC[N+]1(C)C [NSC36387, d-tubocurarine, reference compound] | – | – | Kd ((UniProt Z9ZW91H0F0)): 37.5 nM
2 | COc1cc2c(cc1OC)C13CCN4CC5=CCOC(CC(=O)O)C(C5CC41)C3N2 (centres unmarked) [NSC121865] | 112 | 75.9 | –
3 | c1ccc2c(CN3CCN(Cc4c[nH]c5ccccc45)CC3)c[nH]c2c1 [NSC42258] | – | – | Kd (AChBP (Ac) [3]): 2910 nM; Kd (AChBP (Ac) [4]): 1150 nM; effect on survival time of mice (in words) (α-cobratoxin): can prolong the survival time
4 | N#Cc1ccc(/C=C/C(=O)O)cc1 [NSC134754] | 793 | 404 | –
